Assay results published in the supplement of paper PMC11061612.

Tests used:
Assay in all cases: combination Emax (second highest fraction inhibited in the dose matrix, 72 h); higher = more inhibition; extreme values may be limits of the assay
[1] = system: LB996-RCC (Kidney Carcinoma)
Outline: (§1)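 Cell lines grown in DMEM/F12 or RPMI with 10% FBS were plated in 1536-well plates and held 24 hours at 37°C, 5% CO2 before 72 hours of exposure to two-drug dose matrices, with DMSO typically at 0.2%. CellTiter-Glo 2.0 luminescence gave viability, which was converted to inhibition. Vehicle wells were set to 0 and blank wells to 1. Combination Emax is the second-highest inhibition in the matrix, and Bliss excess is the observed combination effect minus the expected EA + EB − EA·EB, where EA and EB are the single-agent effects.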

LN-229 (Glioblastoma) = system: LN-229 (Glioblastoma)
Outline: as §1

[2] = system: RCM-1 (Colorectal Carcinoma)
Outline: as §1

[3] = system: SK-PN-DW (Other Solid Carcinomas)
Outline: as §1

[4] = system: NCI-H446 (Small Cell Lung Carcinoma)
Outline: as §1

[5] = system: L-1236 (Hodgkin's Lymphoma)
Outline: as §1

[6] = system: LXF-289 (Lung Adenocarcinoma)
Outline: as §1

[7] = system: PSN1 (Pancreatic Carcinoma)
Outline: as §1

[8] = system: RERF-GC-1B (Gastric Carcinoma)
Outline: as §1

[9] = system: KE-37 (T-Lymphoblastic Leukemia)
Outline: as §1

[10] = system: VAL (B-Cell Non-Hodgkin's Lymphoma)
Outline: as §1

[11] = system: HSC-39 (Gastric Carcinoma)
Outline: as §1

[12] = system: PC-3_[JPC-3] (Lung Adenocarcinoma)
Outline: as §1

[13] = system: NCI-H2342 (Lung Adenocarcinoma)
Outline: as §1

SF268 (Low Grade Glioma) = system: SF268 (Low Grade Glioma)
Outline: as §1

[14] = system: HEC-1 (Endometrial Carcinoma)
Outline: as §1

[15] = system: OPM-2 (Plasma Cell Myeloma)
Outline: as §1

[16] = system: HCT-15 (Colorectal Carcinoma)
Outline: as §1

[17] = system: GP5d (Colorectal Carcinoma)
Outline: as §1

[18] = system: FADU (Head and Neck Carcinoma)
Outline: as §1

Structure (SMILES)	combination Emax [1]	combination Emax (LN-229 (Glioblastoma))	combination Emax [2]	combination Emax [3]	combination Emax [4]	combination Emax [5]	combination Emax [6]	combination Emax [7]	combination Emax [8]	combination Emax [9]	combination Emax [10]	combination Emax [11]	combination Emax [12]	combination Emax [13]	combination Emax (SF268 (Low Grade Glioma))	combination Emax [14]	combination Emax [15]	combination Emax [16]	combination Emax [17]	combination Emax [18]
Cc1c2c(nn1C)CSCc1cc(n(C)n1)CSc1cc(c3ccccc3c1)OCCCc1c(C(=O)O)n(C)c3c-2c(Cl)ccc13 [AZD5991] + Cc1cc2ncnn2cc1Nc1ncc2c(n1)n(C1CCOCC1)c(=O)n2C [AZD7648] (first compound max 1 µM, 7x7, partner max 10 µM)	0.363	0.389	0.241	0.881	0.648	0.426	0.369	0.406	0.987	0.975	0.744	1	0.289	0.317	0.243	0.18	1	0.251	0.824	0.963
Cc1c2c(nn1C)CSCc1cc(n(C)n1)CSc1cc(c3ccccc3c1)OCCCc1c(C(=O)O)n(C)c3c-2c(Cl)ccc13 [AZD5991] + Cn1cnc2c(F)c(Nc3ccc(Br)cc3Cl)c(C(=O)NOCCO)cc21 [Selumetinib] (first compound max 1 µM, 7x7, partner max 3 µM)	0.255	0.428	0.651	0.887	0.563	0.297	0.398	0.67	0.998	0.947	0.724	1	0.269	0.341	0.269	0.143	1	0.301	1	1
C[C@@H]1COCCN1c1cc(C2([S@](C)(=N)=O)CC2)nc(-c2ccnc3[nH]ccc23)n1 [AZD6738] + O=C(c1cc(Cc2n[nH]c(=O)c3ccccc23)ccc1F)N1CCN(C(=O)C2CC2)CC1 [Olaparib] (first compound max 10 µM, 7x7, partner max 10 µM)	0.675	0.539	0.623	0.947	0.811	0.583	0.516	0.5	0.442	1	0.909	1	0.359	0.208	0.407	0.143	0.75	0.832	0.823	0.775
Cc1cc2ncnn2cc1Nc1ncc2c(n1)n(C1CCOCC1)c(=O)n2C [AZD7648] + C=CCn1c(=O)c2cnc(Nc3ccc(N4CCN(C)CC4)cc3)nc2n1-c1cccc(C(C)(C)O)n1 [AZD1775] (first compound max 10 µM, partner max 1 µM)	0.762	0.35	0.596	0.875	0.839	0.767	0.476	0.557	0.788	1	0.864	0.936	0.483	0.255	0.344	0.137	0.864	0.736	0.704	0.546
Cc1cc2ncnn2cc1Nc1ncc2c(n1)n(C1CCOCC1)c(=O)n2C [AZD7648] + CCN(CCO)CCCOc1ccc2c(Nc3cc(CC(=O)Nc4cccc(F)c4)[nH]n3)ncnc2c1 [AZD2811] (first compound max 10 µM, 7x7, partner max 1 µM)	0.363	0.199	0.316	0.696	0.834	0.384	0.395	0.397	0.281	1	0.798	0.939	0.319	0.324	0.19	0	0.605	0.455	0.478	0.263
Cc1cc2ncnn2cc1Nc1ncc2c(n1)n(C1CCOCC1)c(=O)n2C [AZD7648] + CN(C)CCCOc1ccc(-c2ccc3ncc4c(c3c2)n(C2CCOCC2)c(=O)n4C)cn1 [AZD0156] (first compound max 10 µM, 7x7, partner max 1 µM)	0.339	0.146	0.201	0.303	0.309	0.306	0.201	0.38	0.29	0.659	0.53	0.215	0.31	0.249	0.187	0.002	0.556	0.267	0.293	0.111
Cc1cc2ncnn2cc1Nc1ncc2c(n1)n(C1CCOCC1)c(=O)n2C [AZD7648] + C[C@@H]1COCCN1C2=NC(=NC(=C2)C3(CC3)[S@](=N)(=O)C)C4=C5C=CNC5=NC=C4 [AZD6738] (first compound max 10 µM, 7x7, partner max 10 µM)	0.668	0.525	0.855	0.943	0.786	0.689	0.369	0.418	0.457	1	0.918	1	0.426	0.24	0.303	0.423	0.822	0.835	0.822	0.695
Cc1cc2ncnn2cc1Nc1ncc2c(n1)n(C1CCOCC1)c(=O)n2C [AZD7648] + O=C(c1cc(Cc2n[nH]c(=O)c3ccccc23)ccc1F)N1CCN(C(=O)C2CC2)CC1 [Olaparib] (first compound max 10 µM, 7x7, partner max 10 µM)	0.423	0.0989	0.125	0.395	0.273	0.238	0.177	0.31	0.228	0.585	0.601	0.267	0.19	0.12	0.117	0.114	0.294	0.501	0.28	0.237
NC1(C(=O)N[C@@H](CCO)c2ccc(Cl)cc2)CCN(c2ncnc3[nH]ccc23)CC1 [Capivasertib] + CC(=O)c1c(C)c2cnc(Nc3ccc(N4CCNCC4)cn3)nc2n(C2CCCC2)c1=O [Palbociclib] (first compound max 10 µM, 7x7, partner max 10 µM)	0.781	0.376	0.383	0.615	0.719	0.861	0.691	0.484	0.458	0.76	0.626	0.749	0.398	0.327	0.452	0.33	0.987	0.665	0.648	0.527
NC1(C(=O)N[C@@H](CCO)c2ccc(Cl)cc2)CCN(c2ncnc3[nH]ccc23)CC1 [Capivasertib] + CC(C)n1c(=O)n(C)c2cnc3cc(F)c(-c4ccc(OCCCN5CCCCC5)nc4)cc3c21 [AZD1390] (first compound max 10 µM, 7x7, partner max 0.3 µM)	0.645	0.104	0.253	0.597	0.643	0.759	0.396	0.256	0.433	0.72	0.609	0.432	0.176	0.284	0.272	0.145	0.931	0.312	0.669	0.221
NC1(C(=O)N[C@@H](CCO)c2ccc(Cl)cc2)CCN(c2ncnc3[nH]ccc23)CC1 [Capivasertib] + CCN(CCO)CCCOc1ccc2c(Nc3cc(CC(=O)Nc4cccc(F)c4)[nH]n3)ncnc2c1 [AZD2811] (first compound max 10 µM, 7x7, partner max 1 µM)	0.71	0.211	0.197	0.83	0.958	0.792	0.679	0.371	0.542	1	0.761	0.948	0.344	0.482	0.416	0.212	0.981	0.394	0.718	0.36
NC1(C(=O)N[C@@H](CCO)c2ccc(Cl)cc2)CCN(c2ncnc3[nH]ccc23)CC1 [Capivasertib] + COc1nnc2ccc(N3CCC(c4ccc(OCCN5CCN(C)C(=O)[C@H]5C)cc4)CC3)nn12 [AZD5153] (first compound max 10 µM, 7x7, partner max 1 µM)	0.72	0.344	0.613	0.74	0.97	1	0.811	0.256	0.617	0.905	0.806	0.916	0.349	0.46	0.488	0.688	1	0.717	0.873	0.65
NC1(C(=O)N[C@@H](CCO)c2ccc(Cl)cc2)CCN(c2ncnc3[nH]ccc23)CC1 [Capivasertib] + C[C@@H]1COCCN1C2=NC(=NC(=C2)C3(CC3)[S@](=N)(=O)C)C4=C5C=CNC5=NC=C4 [AZD6738] (first compound max 10 µM, 7x7, partner max 10 µM)	0.823	0.597	0.665	0.925	0.904	0.818	0.778	0.536	0.558	0.992	0.831	1	0.441	0.585	0.644	0.347	1	0.738	0.829	0.594
